# Test results reported in patent publication US12414948B2, “Methods” (INTRA-CELLULAR THERAPIES, INC., priority 2022, dated 2025).
# Experiments:
# Assay type in all cases: in vivo, mouse
# [1] = system: serum cytokines IL-1b, IL-6, TNF-alpha, IL-10; assay: Serum cytokine protein (Multiplex MSD V-Plex) after LPS and lumateperone; settings: 2 h
# Method: All other reagents are obtained in the highest purity available from Sigma-Aldrich (St. Louis, MO) unless otherwise noted. […] Some rodents are given a cotreatment with a subcutaneous (SC) injection of lipopolysaccharide (LPS, 500 μg/kg; Sigma-Aldrich, ref #0127:B8) diluted in 0.9% injectable saline while control group animals receive injections of all vehicles matching the experimental conditions. […] On day 2, either no injection for naïve rats, or saline or LPS is injected (1 mg/kg, SC).
# Tissue Collection. […] Rats are euthanized 18 hours after LPS injection for sample collection. Hippocampi from mice and rats are rapidly dissected under RNAse-free conditions and placed in 1.5 mL Eppendorf tubes. When appropriate, samples are snap frozen in liquid nitrogen prior to storage at −80° C. until further analysis. Trunk blood is collected from mice into serum collection tubes, allowed to clot at room temperature for 1 hour, then centrifuged at 1,500 g for 10 minutes at 4° C.
# (§1) Multiplex Assays. In mouse serum, protein levels of IL-1b, IL-6, IL-10 and TNF-alpha are measured using a V-Plex Meso Scale Discovery (MSD) Multiplex spot assay Mouse Neuroinflammation 1 panel (Meso Scale Diagnostics, Rockville, MD). All samples are run in duplicates or triplicates according to manufacturer instructions and analyzed with MSD Discovery Workbench software (Meso Scale Diagnostics).
# An additional experimental group receiving an injection with lumateperone alone is included as an additional control. Protein concentration is measured using the Multiplex MSD assay V-Plex technology. Results are expressed in pg/mL, except for IL-6, which is measured in ng/mL.
# [2] = system: hippocampal gene expression (NanoString gene sets and genes); assay: NanoString nCounter hippocampal gene expression after co-injection of LPS and lumateperone
# Source text: NanoString. The mouse neuropathology panel includes 770 genes associated with themes of neurotransmission, neuron-glia interaction, neuroplasticity, cell structure integrity, neuroinflammation and metabolism. A total of 13 housekeeping genes are used for expression normalization (Aars: NM_146217.4, Asb10: NM_080444.4, Ccdc127: NM_024201.3, Cnot10: NM_153585.5, Csnk2a2: NM_009974.3, Fam104a: NM_138598.5, Gusb: NM_010368.1, Lars: NM_134137.2, Mto1: NM_026658.2, Supt7l: NM_028150.1, Tada2b: NM_001170454.1:3224, Tbp: NM_013684.3:70, and Xpnpep1: NM_133216.3:1826, see FIG. 1-1). Hippocampal RNA is extracted using the Qiagen microkit (Qiagen) and is evaluated by the Agilent 2100 Bioanalyzer (Agilent Technologies, Santa Clara, CA) to assess RNA concentration, quality, and integrity. Sample preparation, hybridization, and detection (100 ng per sample, n=5-6 per group) are carried out according to NanoString manufacturer's instructions (NanoString Technologies, Seattle, WA). The normalized data are transformed to log 2 score to express the fold change. NanoString results (raw and normalized counts) are derived from RCC files using the nSolver software (version 2.6; NanoString Technologies). A complementary gene software analysis tool, ROSALIND® Advanced Analysis Software (NanoString Technologies), is also used, which provides comprehensive free cloud-based data analysis for nCounter data by directly analyzing raw RCC files generated from NanoString. Data are imported into ROSALIND® Advanced Analysis Software for normalization, calculation of fold-changes, P values, identification of enriched pathways, and heatmaps.
# It is calculated similarly to a undirected global significance score, but it takes into account the sign of the t-statistic. Scores were calculated by nSolver software, using the control group as a reference.
# [3] = system: serum cytokines IL-1b, IL-6, TNF-alpha, IL-10; assay: Serum cytokine protein (Multiplex MSD) after acute restraint stress; settings: mice, 2 h restraint stress; Luma 3 mg/kg IP immediately before
# Method: as §1
# Restraint Stress Protocol.
# Control mice receive vehicle treatment and are returned to their home cage before sample collection. Protein concentration is measured using the Multiplex MSD assay V-Plex technology, normalized to the control group. Results are expressed in pg/mL.
# [4] = system: blood-brain barrier (NaFl brain penetration); assay: BBB permeability assay (sodium fluorescein), LPS paradigm; settings: mice, 2 h, label LPS = LPS alone, label Luma = Luma 3 mg/kg IP co-injected with LPS
# Method: BBB Permeability Assay. […] Mice are perfused with 15 ml 1×PBS solution.
# Systemic inflammation is associated with increased permeability of the BBB, and this has been discussed as a potential factor underlying depression pathophysiology. […] Forty-five minutes before sample collection, mice receive NaFl injections (200 μl of 10% solution, IP) (Table 3).
# [5] = LPS 500 μg/kg-challenged mice, hippocampus 2 h, label LPS = LPS alone, label Luma = LPS + Luma 3 mg/kg, vs control group
# [6] = mice, hippocampus 2 h, Luma 3 mg/kg alone (no LPS), vs control group
# [7] = LPS 500 μg/kg-challenged mice, label LPS = LPS alone, label Luma = LPS + Luma 3 mg/kg IP
molecule,measurement,setting,value
"CN1CCN2c3c(cccc31)[C@@H]1CN(CCCC(=O)c3ccc(F)cc3)CC[C@@H]12 [Luma, lumateperone]",Serum cytokine concentration IL-6,"[1]; mice, Luma 3 mg/kg IP alone (no LPS)",0.09 ng/mL
same,Directed global significance score: DNA damage,[2]; [5],0.042
same,Directed global significance score: Inflammatory signaling,[2]; [5],−0.93
same,Directed global significance score: Lipid metabolism,[2]; [5],0.89
same,Directed global significance score: Oligodendrocyte function,[2]; [5],0.48
same,"Genes that promote inflammation (e.g., Osmr, Tnfrsf1a, Tnfrsf11b, Prl, Il1r1), cytokine-specific gene expression","[2]; ROSALIND analysis, LPS+Luma versus LPS alone, filter P<0.04999, mice hippocampus",significantly downregulates
same,Directed global significance score: Adaptive immune response,[2]; [6],0.344
same,Directed global significance score: Angiogenesis,[2]; [6],0.616
same,Directed global significance score: Apoptosis,[2]; [6],−0.442
same,Directed global significance score: Astrocyte function,[2]; [6],−0.837
same,Directed global significance score: Autophagy,[2]; [6],−0.731
same,Directed global significance score: Carbohydrate metabolism,[2]; [6],−0.837
same,Directed global significance score: Cell cycle,[2]; [6],−0.75
same,Directed global significance score: Cellular stress,[2]; [6],−0.432
same,Directed global significance score: Cytokine signaling,[2]; [6],−0.543
same,Directed global significance score: DNA damage,[2]; [6],−0.614
same,Directed global significance score: Epigenetic regulation,[2]; [6],0.729
same,Directed global significance score: Growth factor signaling,[2]; [6],0.226
same,Directed global significance score: Inflammatory signaling,[2]; [6],−1.032
same,Directed global significance score: Innate immune response,[2]; [6],−0.611
same,Directed global significance score: Insulin signaling,[2]; [6],0.858
same,Directed global significance score: Lipid metabolism,[2]; [6],−0.818
same,Directed global significance score: Matrix remodeling,[2]; [6],−0.4
same,Directed global significance score: Microglia function,[2]; [6],0.466
same,Directed global significance score: Notch,[2]; [6],0.834
same,Directed global significance score: Oligodendrocyte function,[2]; [6],−1.176
same,Directed global significance score: Wnt,[2]; [6],0.9
same,Serum cytokine concentration IL-1b,[3],0.81 pg/mL
"lipopolysaccharide [LPS, reference compound]",Serum cytokine concentration IL-1b,[1]; [7],6.27 pg/mL
same,Serum cytokine concentration IL-6,[1]; [7],14.52 ng/mL
same,Serum cytokine concentration IL-10,[1]; [7],980.4 pg/mL
same,Serum cytokine concentration TNF-alpha,[1]; [7],335.3 pg/mL
same,Directed global significance score: Adaptive immune response,[2]; [5],0.571
same,Directed global significance score: Angiogenesis,[2]; [5],−0.144
same,Directed global significance score: Apoptosis,[2]; [5],0.915
same,Directed global significance score: Astrocyte function,[2]; [5],1.391
same,Directed global significance score: Autophagy,[2]; [5],0.588
same,Directed global significance score: Carbohydrate metabolism,[2]; [5],0.507
same,Directed global significance score: Cell cycle,[2]; [5],−0.148
same,Directed global significance score: Cellular stress,[2]; [5],0.499
same,Directed global significance score: Cytokine signaling,[2]; [5],0.993
same,Directed global significance score: DNA damage,[2]; [5],0.578
same,Directed global significance score: Epigenetic regulation,[2]; [5],0.312
same,Directed global significance score: Growth factor signaling,[2]; [5],0.76
same,Directed global significance score: Inflammatory signaling,[2]; [5],1.086
same,Directed global significance score: Innate immune response,[2]; [5],0.939
same,Directed global significance score: Insulin signaling,[2]; [5],0.28
same,Directed global significance score: Lipid metabolism,[2]; [5],−0.192
same,Directed global significance score: Matrix remodeling,[2]; [5],−0.583
same,Directed global significance score: Microglia function,[2]; [5],0.377
same,Directed global significance score: Neurons and neurotransmission,[2]; [5],−0.422
same,Directed global significance score: Notch,[2]; [5],0.876
same,Directed global significance score: Oligodendrocyte function,[2]; [5],0.181
same,Directed global significance score: Wnt,[2]; [5],−0.476
same,NaFl brain penetration (cerebrum/serum ratio),[4],1.406 ± 0.0873 arbitrary units normalized to control
